# Entries after “also recorded” stand apart in the source; their conditions may differ. Where two headings read alike, the source gives them in different places.
# Key:
# [1] = pH dependence of the structures; type: physicochemical
# [2] = Determination of extraction constant KML^ex, sodium ion; type: physicochemical; conditions: for -log K^ex NaL (extraction constant): solvent chloroform
# Source text: (§1) Extraction equilibria are illustrated in FIG. 2 and in the following equation: [formula] where [M^+ ]t denotes a total alkali metal concentration. By assuming [L^-a ]>>[HLa ]+[MLa ], and [M^+ ]t >>[HL]t,
# (§2) [HL]t =[HLo ]+[MLo ]+[L^-a ] (12)
# (§3) Combining Eq. (8), (11), (12), and (13) gives [formula] where Δε=εMLo -εHLo, and E° denotes the E value in the absence of the metal ion in the system (E°=^ε HLo). […] The absorbance at the isosbestic point 401.4 nm shown in FIG. 1 gives εL.spsb.-.sbsb.a, so that the values of E and Eo, which are necessary for the plot, can be obtained experimentally.
# (§4) Determination of the partition equilibrium system was made in a manner similar to that employed in Example 7. The concentrations [HL]t, [M^+ ]t, and [OH^- ] were 5.35×10^-5 M, 4×10^-3 M-2 M (as chloride), and 10^-2 M-10^-1 M (as potassium hydroxide), respectively. Chloroform was used as the organic medium.
# (§5) In order to confirm the important assumption [La^- ]>>[HLa]+[MLa ], Eq.(11) (the left equation) was used for the evaluation of E instead of Eq.(15), which was derived from Eq.(11) under the assumption, and the obtained extraction constants compared with those obtained using Eq.(15). When Eq.(11) was applied, the species HLo and MLo in the organic layer were extracted into 0.1M hydrochloric acid as HLH^+, and the concentration of HLH+was determined spectrophotometrically and equated to [HLo ]+[MLo ]in Eq.(11). The extraction constants obtained in this way are […]
# [3] = Effect of sodium ion on lithium determination; type: physicochemical; conditions: 30-fold excess of sodium ions to lithium ions (Na+:Li+ weight ratio 30:1); versus Li+ alone; chloroform layer (Example 9: 400 nm)
# Experimental: The effect of sodium ion in the system was determined in a procedure similar to that used in Example 7. A series of six round-bottomed flasks containing 5 ml of chloroform, and 5 ml of an aqueous solution containing aza-12-crown-4 reagent (6.7×10^-4 M), lithium chloride (1×10^-4 =0.694 μg ml^-1), and a variable amount of sodium chloride [sodium chloride was added to five of these flasks in 0.001M increments whereby the [NaCl]aq =1×10^-3 M to 5×10^-3 M (23 μg ml^-1 through 115 μg ml^-1); one flask served as a sodium-free blank]. Absorbance of the organic layer was measured on a spectrophotomer. The results are illustrated in FIG. 4.
# [4] = Determination of extraction constant KML^ex, lithium ion; type: physicochemical; conditions: for -log K^ex LiL (extraction constant): solvent chloroform
# Source text: as §1, §2, §3, §4, §5
# [5] = Determination of acid dissociation constants K1 and K2 by spectrophotometric titration; type: physicochemical; conditions: μ = 0.1 (CsCl), aqueous
# Experimental: A 50 ml aqueous solution containing the crown reagent of Example 5 (8.70×10^-5 M), hydrochloric acid (6×10^-4 M), and cesium chloride (0.1 M) was titrated with potassium hydroxide [0.1 M (below pH12), and 1 M (above pH12)], using a Metrohm automatic titrator, Dosimat E535 equipped with Potentiograph E536. The titration was interrupted in every 0.3-1.5 pH increase for the measurement of the absorption spectrum of the solution. A 3-4 ml portion of the solution was taken to a cuvette, the spectrum was recorded on a Hewlett-Packard 8450A spectrometer, and the solution was returned to the titration vessel using a pipet. The magnitude of the spectrum was corrected in order to adjust for dilution upon titration, and corrected results shown in FIG. 1.
# [formula] where K1 and K2 denote the acid dissociation constants, and KML a complex formation constant. By assuming no significant complex-formation, an absorbance A at any wavelength and the total concentration of the reagent [HL]t are written as
# A=εHLH.spsb.+ [HLH^+ ]+εHL
# [HL]+εLL.spsb.- [L^- ] (4)
# [HL]t =[HLH^ […] ]+[HL]+[L^- ] (5)
# where ε's are molar absorption coefficients. […]
# At 342.8 nm and at pH ≥9.7, the absorbance deviating from the isosbestic point reflects the decay of HL and the growth of L-, so that these absorbance data can be used for the evaluation of -logK2 using Eq. (7). […]
# [6] = Effect of organic solvents and bases on response to lithium and sodium ion; type: physicochemical
# Experimental: Three solvents--chloroform, 1,2-dichloroethane and methylene chloride--werecompared using potassium hydroxide and sodium hydroxide as bases. […] At 0.1M hydroxide, however, large differences were observed both between the cations and between the organic solvents. […] The best stability of the absorbance after the separation of organic layer from the equilibrium system was also observed for this system.
# Various other organic solvents were tested as organic media with a 0.01 M potassium hydroxide.
# [7] = cited from earlier work
# [8] = μ = 0.1 (CH3)4NCl; reported by Nakamura et al; cited from earlier work
# [9] = solvent 1,2-dichloroethane; pH not specified; reported by Nakamura et al; cited from earlier work
# [10] = obtained using Eq. (11), organic species back-extracted into 0.1M hydrochloric acid, chloroform
compound,measurement,setting,value
"O=[N+]([O-])c1ccc(O)c(CN2CCOCCOCCOCC2)c1 [aza-12-crown-4, 1-(2-oxy-5-nitrobenzyl)-1-hydro-1-aza-4,7,10-trioxacyclododecane]",pH at which the structure predominates,[1]; listed as iii,approximately 8
same,-log K^ex NaL (extraction constant),[2]; 0.05M KOH,12.49
same,-log K^ex NaL (extraction constant),[2]; 0.1M KOH,12.50
same,-log KNaL^ex (extraction constant),[2]; [10],12.47
same,increase in absorbance in presence of sodium ion,[3],8%
same,-log K^ex LiL (extraction constant),[4]; 0.05M KOH,10.23
same,-log K^ex LiL (extraction constant),[4]; 0.1M KOH,10.18
same,dependence of -log KLiL^ex on hydroxide concentration,"[4]; 10^-2 M-10^-1 M KOH, chloroform",not significantly dependent on the hydroxide concentration employed
same,ratio of KLiL^ex to KNaL^ex (selectivity),[4]; compared with aza-15-crown-5,much greater than the aza-15-crown5
same,"KLiL^ex smaller than that of prior art aza-15-crown-5, factor",[4]; compared with prior art aza-15-crown-5,smaller by a factor of ten
same,-log KLiL^ex (extraction constant),[4]; [10],10.25
same,-log K1 (acid dissociation constant),[5],5.77
same,-log K2 (acid dissociation constant; pK2),[5],10.31
same,sensitivity and interference differences between bases and solvents,"[6]; 0.01 M hydroxide, chloroform, 1,2-dichloroethane, methylene chloride, KOH and NaOH",no significant sensitivity and interference differences were observed
same,"sensitivity and sodium interference, bases and solvents","[6]; 0.1M hydroxide, chloroform, 1,2-dichloroethane, methylene chloride, KOH and NaOH","Potassium hydroxide gave higher sensitivity in both chloroform and methylene chloride than sodium hydroxide, but not in 1,2-dichloroethane; also recorded: Methylene chloride exhibited the highest sensitivity when used with potassium hydroxide, but was subject to increased interference by sodium ions; also recorded: The combination of methylene chloride and sodium hydroxide allowed most of the reagent to pass into the organic layer; also recorded: optimum combination of high sensitivity, low interference, and low blank absorption was achieved by a system employing 0.1M potassium hydroxide and chloroform"
same,response / extraction by organic solvent,[6]; organic solvents tested with 0.01 M potassium hydroxide,"no response of the reagent to lithium and sodium ion was observed; also recorded: Methyisobutyl-ketone showed only slight extraction of the metal complex; also recorded: No extraction occurred into benzene, carbon tetrachloride, chlorobenzene, and trichlorethylene"
same,response with triethylamine as base,"[6]; triethylamine 1M in CHCl3, compared with KOH",the response to lithium ions was smaller and the response to sodium ions was larger
same,response with triethylamine plus sodium hydroxide,[6]; triethylamine 1M in CHCl3 and sodium hydroxide 0.1M,"intermediate response to lithium ions, and the response was not stable"
"C1COCCN2CCOCCN(CCO1)CCOCC2 [cryptand [2,1,1]]",sensitivity to lithium ions,"[7]; cryptand itself, without ion pairing agent",not sensitive to lithium ions
same,extraction of lithium ions compared with reagent of Nakamura et al,[7]; with ion pairing agent resazurin,more selectively and more efficiently
"O=[N+]([O-])c1ccc(O)c(CN2CCOCCOCCOCC2)c1 [i, 1-(2-hydroxy-5-nitrobenzyl)-1-hydro-1-aza-4,7,10-trioxacyclododecane]",pH at which the structure predominates,[1],less than 5
"O=[N+]([O-])c1ccc(O)c(CN2CCOCCOCCOCC2)c1 [ii, 1-(2-oxy-5-nitrobenzyl)1-aza-4,7,10-trioxacyclododecane]",pH at which the structure predominates,[1],greater than 11
"O=[N+]([O-])c1ccc(O)c(CN2CCOCCOCCOCCOCC2)c1 [aza-15-crown-5, N-(2-hydroxy-5-nitrobenzyl)-aza-15-crown-5]",-log K1 (acid dissociation constant),[8],5.79
same,-log K2 (acid dissociation constant),[8],9.69
same,-log K^ex LiL (extraction constant),"[7]; solvent 1,2-dichloroethane, pH not specified, reported by Nakamura et al",9.15
same,-log K^ex NaL (extraction constant),[9],9.76
